The results in this text go back to patent US12024506B2, “Compounds” (Oxford University Innovation Limited, priority 2018, dated 2024).

For experiment [1], the target named is T1, GST-human KRas166 (G12V) GPPNHP (Homo sapiens, UniProt P01116, G12V).
T1 construct: made in house; host or cells: E. coli C41(DE3)
The experiment in a line: KRas small-molecule screening by SPR (Biacore T200). Conditions: compound 100 uM, 5% DMSO buffer; immobilised GST-KRas166 (G12V) GPPNHP. It counts as binding. The gist of the method:
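Biacore T200 screen: compounds at 100 uM final in 5% DMSO buffer (100 mM NaCl, 5 mM MgCl2) over GPPNHP-bound GST-KRas166 G12V captured by anti-GST antibody (10,000–15,000 RU) versus GST-only channel. Expected 1:1 Rmax 63 RU; DMSO solvent correction applied.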
On the technique in general: SPR reads the build-up and loss of mass on a sensor chip optically.

The subject of experiment [2] is H358 cells (ATCC CRL-5807). The experiment can be described thus: Cell viability assay 1 (CellTiter-Glo), H358 cells. Conditions: Homo sapiens, NCI-H358, 48 h, first value of the cell, read-out: Cell Viability H358 (concentration that decreases cell viability by 50%). It is filed as cell-based. How it is done:
(§1) Cells (A549 ATCC CCL-185) are cultured in Dulbecco's Modified Eagle's Medium plus 10% foetal calf serum and 2 mM L-glutamine at 37° C., 5% CO2. Cells are plated onto white clear bottom 96-well plates (5000 cells/well in 200 μl media) and left to adhere overnight at 37° C., 5% CO2. Next day, test compound (1 μl at 200× concentration in 100% DMSO) is added to give final test compound concentration 1× in 0.5% DMSO. After 48 h of incubation at 37° C., 5% CO2, 20 μl CellTiter-Glo reagent (Promega G7572) is added into each well. Plates are incubated at room temperature with shaking for 30 min and then luminescence is read using a PheraStar plate reader. The concentration of compounds that decrease cell viability by 50% is calculated from dose response curves generated using Dotmatics data analysis software.
In the H358 cell assay, cells (ATCC CRL-5807) are cultured in RPMI-1640 medium plus 10% foetal calf serum and 2 mM L-glutamine at 37° C., 5% CO2.

The test system of experiment [3] is DLD1 cells (ATCC CCL-221). The experiment in a line: Cell viability assay 1 (CellTiter-Glo), DLD1 cells. It counts as cell-based. Conditions: Homo sapiens, DLD-1 cells, 48 h, second value of the cell, read-out: Cell Viability DLD-1 (concentration that decreases cell viability by 50%). How it is done:
as §1
In the DLD1 cell assay, cells (ATCC CCL-221) are cultured in RPMI-1640 medium plus 10% foetal calf serum and 2 mM L-glutamine at 37° C., 5% CO2.
In general terms: ATP-based viability assays read luminescence as a measure of living cells.

Consider `COc1nc(-c2cccc3c2OCCO3)ccc1Nc1cccc(C(=O)NCc2cccc(C)n2)c1` [Example 162, 3-[6-(2,3-Dihydro-benzo[1,4]dioxin-5-yl)-2-methoxy-pyridin-3-ylamino]-N-(6-methyl-pyridin-2-ylmethyl)-benzamide], for which the “SPR Response Units” value in experiment [1] stood at 36 Response Units. Further, the IC50 worked out at 27.9 µM in experiment [2] and 3.9 µM in experiment [3].
In the same order, the values of `COc1nc(-c2cccc3c2OCCO3)ccc1Nc1cccc(CC(=O)NC2CCC(=O)NC2)c1` (stereo not drawn) [Example 206, 2-{3-[6-(2,3-Dihydro-benzo[1,4]dioxin-5-yl)-2-methoxy-pyridin-3-ylamino]-phenyl}-N-(6-oxo-piperidin-3-yl)-acetamide] are 151 Response Units, 11 µM and 35.9 µM.
`COc1nc(-c2cccc3c2OCCO3)ccc1Nc1cccc(C(=O)NCC2CCNC(=O)C2)c1` (stereo not drawn) [Example 182, 3-[6-(2,3-Dihydro-benzo[1,4]dioxin-5-yl)-2-methoxy-pyridin-3-ylamino]-N-(2-oxo-piperidin-4-ylmethyl)-benzamide]: the “SPR Response Units” value in experiment [1] is 198 Response Units. In addition, the IC50 in experiment [2] was 27 µM; in experiment [3] it was 11.3 µM.
As for `COc1nc(-c2cccc3c2OCCO3)ccc1Nc1cccc(CNC(=O)c2ccncc2)c1` [Example 80, N-{3-[6-(2,3-Dihydro-benzo[1,4]dioxin-5-yl)-2-methoxy-pyridin-3-ylamino]-benzyl}-isonicotinamide], in experiment [1], the “SPR Response Units” value turned out to be 51 Response Units. Moreover, the IC50 in experiment [2] was found to be 16.5 µM; in experiment [3], 13.4 µM.
In the same order, the values of `COc1nc(-c2cccc3c2OCCO3)ccc1Nc1cccc(C(=O)NCC2CCN(Cc3ccccc3)CC2)c1` [Example 181, N-(1-Benzyl-piperidin-4-ylmethyl)-3-[6-(2,3-dihydro-benzo[1,4]dioxin-5-yl)-2-methoxy-pyridin-3-ylamino]-benzamide] are 149 Response Units, 4.3 µM and 1.8 µM.
`COc1cccc(-c2cccc3c2OC(CNC(=O)c2ccc(CN4CCN(C)CC4)o2)CO3)n1` (stereo not drawn) [Example 43, 5-(4-Methyl-piperazin-1-ylmethyl)-furan-2-carboxylic acid [8-(6-methoxy-pyridin-2-yl)-2,3-dihydro-benzo[1,4]dioxin-2-ylmethyl]-amide]: the “SPR Response Units” value in experiment [1] is reported as 105 Response Units. Moreover, the IC50 in experiment [2] is over 100 µM; in experiment [3], 19 µM.
As to `COc1nc(-c2cccc3c2OCCO3)ccc1Nc1cccc(CC(=O)NCC2CCN(C)CC2)c1` [Example 202, 2-{3-[6-(2,3-Dihydro-benzo[1,4]dioxin-5-yl)-2-methoxy-pyridin-3-ylamino]-phenyl}-N-(1-methyl-piperidin-4-ylmethyl)-acetamide], the “SPR Response Units” value in experiment [1] amounted to 387 Response Units. Besides, the results for the IC50 in experiment [2] and in experiment [3] were 17.5 µM and 10.5 µM, respectively.
Consider `COc1nc(-c2cccc3c2OC(CNC(=O)C2CCOCC2)CO3)ccc1Nc1ccc(CNCc2ccccn2)cc1` (stereo not drawn) [Example 118, Tetrahydro-pyran-4-carboxylic acid {8-[6-methoxy-5-(4-{[(pyridin-2-ylmethyl)-amino]-methyl}-phenylamino)-pyridin-2-yl]-2,3-dihydro-benzo[1,4]dioxin-2-ylmethyl}-amide], for which the “SPR Response Units” value in experiment [1] was 291 Response Units. Moreover, the IC50 in experiment [2] was 12.8 µM; in experiment [3] it was 11 µM.
Consider `COc1nc(-c2cccc3c2OC(CNC(=O)C2CCOCC2)CO3)ccc1Nc1ccc(CNCc2ccn[nH]2)cc1` (stereo not drawn) [Example 120, Tetrahydro-pyran-4-carboxylic acid {8-[6-methoxy-5-(4-{[(2H-pyrazol-3-ylmethyl)-amino]-methyl}-phenylamino)-pyridin-2-yl]-2,3-dihydro-benzo[1,4]dioxin-2-ylmethyl}-amide], for which the “SPR Response Units” value in experiment [1] was found to be 230 Response Units. Besides, the IC50 in experiment [2] stood at 12.4 µM; in experiment [3], 10.9 µM.
Consider `CN(C)Cc1cccc(Nc2ccc(-c3cccc4c3OCCO4)cc2)c1.O=CO` [Example 70, [4-(2,3-Dihydro-benzo[1,4]dioxin-5-yl)-phenyl]-(3-dimethylaminomethyl-phenyl)-amine. formate salt], for which the “SPR Response Units” value in experiment [1] came to 86 Response Units. Besides, the results for the IC50 in experiment [2] and in experiment [3] were 8.6 µM and 10.6 µM, respectively.
In the same order, the values of `COc1nc(-c2cccc3c2OCCO3)ccc1Nc1cccc(C2CCC(=O)N2)c1` (stereo not drawn) [Example 62, 5-{3-[6-(2,3-Dihydro-benzo[1,4]dioxin-5-yl)-2-methoxy-pyridin-3-ylamino]-phenyl}-pyrrolidin-2-one] are 72 Response Units, 8.6 µM and 13.7 µM.
Regarding `COc1nc(-c2cccc3c2OCCO3)ccc1Nc1ccc(CNCc2cccc(F)n2)cc1` [Example 188, [6-(2,3-Dihydro-benzo[1,4]dioxin-5-yl)-2-methoxy-pyridin-3-yl]-(4-{[(6-fluoro-pyridin-2-ylmethyl)-amino]-methyl}-phenyl)-amine], in experiment [1], the “SPR Response Units” value was found to be 103 Response Units. For the same molecule, the IC50 in experiment [2] is 27.4 µM; in experiment [3], 49.5 µM.
The matching figures for `COc1nc(-c2cccc3c2OCCO3)ccc1Nc1cccc(CC(=O)NC2CCN(C)CC2)c1` [Example 203, 2-{3-[6-(2,3-Dihydro-benzo[1,4]dioxin-5-yl)-2-methoxy-pyridin-3-ylamino]-phenyl}-N-(1-methyl-piperidin-4-yl)-acetamide]: 339 Response Units, 33.7 µM and 12.2 µM.
As for `COc1nc(-c2cccc3c2OCCO3)ccc1Nc1ccc(C(=O)NCc2cn[nH]c2)cc1` [Example 160], in experiment [1], the “SPR Response Units” value worked out at 89 Response Units. The IC50 came out at 20.7 µM in experiment [2] and 11 µM in experiment [3].
In the case of `NCc1ccc(C(=O)N2CCN(c3cccc4c3OCCO4)CC2)cc1` [Example 184, (4-Aminomethyl-phenyl)-[4-(2,3-dihydro-benzo[1,4]dioxin-5-yl)-piperazin-1-yl]-methanone], the “SPR Response Units” value in experiment [1] turned out to be 10 Response Units. The IC50 was 3.6 µM in experiment [2] and 1.2 µM in experiment [3].
`CN1CCN(Cc2ccc(C(=O)NCC3COc4cccc(-c5cc(OCc6ccccc6)ccn5)c4O3)o2)CC1` (stereo not drawn) [Example 106, 5-(4-Methyl-piperazin-1-ylmethyl)-furan-2-carboxylic acid [8-(4-benzyloxy-pyridin-2-yl)-2,3-dihydro-benzo[1,4]dioxin-2-ylmethyl]-amide]: in experiment [1], the “SPR Response Units” value is 114 Response Units. The figures for the IC50 in experiment [2] and in experiment [3] were 27 µM and 11 µM, respectively.
The matching figures for `COc1nc(-c2cccc3c2OCCO3)ccc1Nc1ccc(C(=O)NCC2CCC(=O)NC2)cc1` (stereo not drawn) [Example 159]: 122 Response Units, 24.7 µM and 14.1 µM.
For `COc1nc(-c2cccc3c2OCCO3)ccc1Nc1cccc(CNCC2CCC(=O)NC2)c1` (stereo not drawn) [Example 195, 5-({3-[6-(2,3-Dihydro-benzo[1,4]dioxin-5-yl)-2-methoxy-pyridin-3-ylamino]-benzylamino}-methyl)-piperidin-2-one], the “SPR Response Units” value in experiment [1] was determined as 176 Response Units. The IC50 in experiment [2] came out at 13 µM; in experiment [3], 3.8 µM.
For `COc1nc(-c2cccc3c2OCCO3)ccc1Nc1ccc(CNCC2CNC(=O)C2)cc1` (stereo not drawn) [Example 173, 4-({4-[6-(2,3-Dihydro-benzo[1,4]dioxin-5-yl)-2-methoxy-pyridin-3-ylamino]-benzylamino}-methyl)-pyrrolidin-2-one], the “SPR Response Units” value in experiment [1] is given as 147 Response Units. The IC50 in experiment [2] is 7.4 µM; in experiment [3], 4 µM.
For the molecule `COc1nc(-c2cccc3c2OCCO3)ccc1Nc1ccc(CC(=O)NCC2CCN(C)CC2)cc1` [Example 197, 2-{4-[6-(2,3-Dihydro-benzo[1,4]dioxin-5-yl)-2-methoxy-pyridin-3-ylamino]-phenyl}-N-(1-methyl-piperidin-4-ylmethyl)-acetamide], the “SPR Response Units” value in experiment [1] is 453 Response Units. For the same molecule, the IC50 in experiment [2] is over 150 µM; in experiment [3], 15.9 µM.
The matching figures for `COc1nc(-c2cccc3c2OCCO3)ccc1Nc1cccc(CNCc2cc[nH]c(=O)c2)c1` [Example 193, 4-({3-[6-(2,3-Dihydro-benzo[1,4]dioxin-5-yl)-2-methoxy-pyridin-3-ylamino]-benzylamino}-methyl)-1H-pyridin-2-one]: 388 Response Units, 52.5 µM and 14.8 µM.
